Here are results for one substance from patent US5571799A, “(2'-5') oligoadenylate analogues useful as inhibitors of host-v5.-graft response” (Basco, Ltd., priority 1994, dated 1996).

Entries after “also recorded” stand apart in the source; their conditions may differ.

In data set [1] the test system is snake venom phosphodiesterase. Nature of the data set: Stability to the action of snake venom phosphodiesterase. In kind it is in vitro ADME. As to the method: Determination of (2'-5')oligoadenylates and analogues stability to the action of snake venom phosphodiesterase
Upon entering an organism 2'-5'A3 and the analogues are quickly hydrolyzed to monomeric compound(s). Prior to administration of 2'-5'A3 analogues in vivo to animal, it was considered necessary to determine their stability towards snake venom phosphodiesterase in comparison to the parent 2'-5'A3.
The solution of 3 μg of the snake venom phosphodiesterase (Boehringer Mannheim cat. No. 108260) in 30 μl of 0.1 M Tris HCl buffer, containing 0.002 M MgCl2 (pH 8.78) is added to the solution of 4-5·10^-7 M trimer in 100 μl of the same buffer. The solution was left standing at 20° C. At regular intervals, 10 μl samples were taken, heated at 90° C. for 1 minute and preparative thin layer chromatography was performed on the Silufole™ plates, using a 7:1:2 mixture of isopropanol:aqueous ammonia:water.
The spot, corresponding to the initial trimer, was cut out, the substance was extracted with 2 ml of 0.5% solution of the dodecylsulfate sodium salt solution for 2 hours, and the optical density of the solution was determined at 260 nm.

The test system of data set [2] is T-lymphocytes (murine splenocytes) stimulated with Concanavalin A. The data set is described as follows: In vitro blast-transformation of murine lymphocytes, Con A (T-lymphocyte mitogen), [3H]-thymidine. Type of data set: cell-based, mouse (CBA). Conditions: Con A 5 μg/ml; 5 × 10^-6 M; control 22,296. An excerpt: (§1) The immune reactions in an organism begins with the division of lymphocytes. In vitro investigation of the lymphocyte blast-transformationreaction under the influence of mitogens makes it possible to use this model system to select chemically synthesized 2'-5'A3 analogues which suppress division of lymphocytes. Using Concanavalin A and lipopolysaccharide as mitogens, the effect of analogues on the division of T- and β-lymphocytes may be investigated.
CBA mice 8-10 weeks old were used for these experiments. A suspension of mouse splenocytes were obtained by gently teasing spleens with forceps. […] Cultures were maintained in 5% CO2 at 37° C. One μCi of ^3 H-thymidine (Isotop®) was added to each well 4 hours before the end of the incubation period. Incorporation of ^3 H-thymidine into cellular DNA was determined by liquid scintillation counting using standard techniques. Oligoadenylate was added to the medium at the beginning of culturing to achieve the final concentration.
(§2) (Con A being a mitogen for T-lymphocytes and LPS being a mitogen for β-lymphocytes).

In data set [3] the test system is β-lymphocytes (murine splenocytes) stimulated with lipopolysaccharide. The data set is described as follows: In vitro blast-transformation of murine lymphocytes, LPS (β-lymphocyte mitogen), [3H]-thymidine. The following applies: LPS 0.1 μg/ml; 5 × 10^-6 M; control 27,133. Type of data set: cell-based, mouse (CBA).
Text: as §1
CBA mice 8-10 weeks old were used for these experiments. A suspension of mouse splenocytes were obtained by gently teasing spleens with forceps. Lymphocytes cultivated in flat-bottomed 96-well plates (Linbro) in RPMI-1640 medium (Flow Lab.) were supplemented with 2 mM 1-glutamine, 10 μg/ml gentamicin, 10^-5 M 2-mercaptoethanol and 10% heat inactivated fetal calf serum (Flow Lab). Cultures were maintained in 5% CO2 at 37° C. One μCi of ^3 H-thymidine (Isotop®) was added to each well 4 hours before the end of the incubation period. Incorporation of ^3 H-thymidine into cellular DNA was determined by liquid scintillation counting using standard techniques. Oligoadenylate was added to the medium at the beginning of culturing to achieve the final concentration.
as §2

In the next data set the test system is T-helpers. Nature of the data set: Immune system of monkeys: T-helpers, flow cytofluorografic analysis. Type of data set: in vivo, Macaque Rh. monkeys. As to the method:
(§3) The experiments were performed on 4 year-old Macaque Rh. monkeys. The levels of the principal subpopulations of T-lymphocytes, IgA, IgG, IgM and the amount of α- and γ-interferon and interleukin II after administration (2'-5')olygoadenylate and its analogies at the concentration of 50 and 25 μg/kg of the body weight was investigated.
(§4) FLOW CYTOFLUOROGRAFIC ANALYSIS OF LYMPHOCYTE SUBSETS
(§5) Blood samples (100 μl of whole blood) were placed into a 12×17 tube. To these cells 20 μl of purified monoclonal antibodies were added with specificity for human cytotoxic/suppressor cells anti-Leu-2a (CD8), human helper/inducer anti-Leu-3a (CD4) and FITC conjugated monoclonal antibodies with specificity for natural killer cells-anti-Leu11c (CD16) (Becton Dickinson, San Jose). After 30 minutes incubation on ice, the cells were washed once and 20 μl of goat-antimouse chain phycoerythrin (Sigma P1286) conjugate were added to the tube with anti-Leu-2a and anti-Leu-3a monoclonal antibodies.
(§6) After erythrocyte lysing with FACS lysing solution (Becton Dickinson, San Jose) the cells were analyzed on FACScan flow cytometer (Becton Dickinson, San Jose) with scatter gate set on lymphocyte fraction.

A further data set concerns T-suppressors. Nature of the data set: Immune system of monkeys: T-suppressors, flow cytofluorografic analysis. Type of data set: in vivo, Macaque Rh. monkeys. As to the method:
Immunosuppressive activity of the prototype 2'-5'A3 and two analogues (2'-5')A2 Ar-epoxy and (2'-5')A2 A^l-epoxy were investigated in monkeys. The experiments were performed on 4 year-old Macaque Rh. monkeys. The levels of the principal subpopulations of T-lymphocytes, IgA, IgG, IgM and the amount of α- and γ-interferon and interleukin II after administration (2'-5')olygoadenylate and its analogies at the concentration of 50 and 25 μg/kg of the body weight was investigated.
as §4, §5, §6

The test system of another data set is T-killers and T-helpers. Nature of the data set: Immunosuppressive activity in vivo in monkeys. Also on record: species or system Macaque Rh. monkeys. Conditions: monkeys, IV, disodium salt. As to the method: as §3, §4, §5, §6
The test system of data set [4] is Type I and II herpes virus. The following applies: cited from earlier work.

On to “Adenylyl (2'-5')adenylyl (2'-5')-9-(2,3-anhydro-β-D-lyxofuranosyl) adenine disodium salt [(2'-5')A2 A^l-epoxy]”, for which the “T 1/2 (time for optical density of initial trimer to decrease by 50%)” value in data set [1] (20° C., 0.1 M Tris HCl, 0.002 M MgCl2, pH 8.78) was found to be 10.5 h. In addition, the “stability / resistance to phosphodiesterase” value in data set [1] (in words) is “significantly more resistant towards hydrolysis by phosphodiesterase”. Also, the “DNA synthesis at [^3 H]-thymidine [incorporated counts/min.]” value is 15,749 counts/min in data set [2] and 10,828 counts/min in data set [3]. For the same substance, the T-helpers turned out to be 27% in the data set with T-helpers (Table 8, single IV 25 μg/kg, day 2, control (day before) 26.2); 25.3% in the data set with T-helpers (Table 8, single IV 25 μg/kg, day 4, control (day before) 26.2); 20.5% with T-helpers (Table 9, single IV 50 μg/kg, day 2, control (day before) 22); 18.4% with T-helpers (Table 9, single IV 50 μg/kg, day 4, control (day before) 22). Moreover, the T-suppressors with T-suppressors (Table 8, single IV 25 μg/kg, day 2, control (day before) 53.1) turned out to be 44%; in the data set on T-suppressors (Table 8, single IV 25 μg/kg, day 4, control (day before) 53.1) it was 43.4%; in the data set on T-suppressors (Table 9, single IV 50 μg/kg, day 2, control (day before) 42), 44%; with T-suppressors (Table 9, single IV 50 μg/kg, day 4, control (day before) 42), 43.4%. Further, the “immunosuppressive activity, in words” value with T-killers and T-helpers is “considerably lower than that exhibited by (2'-5')A2 Ar-epoxy; also recorded: exhibit immunosuppressive activity in the in vivo experiments”; in the data set on T-killers and T-helpers (listed as (2 -5')A2 A^l-epoxy) it was “strong immunosuppressive activity specifically against T-killers and T-helpers”. Also, the “activity against Type I and II herpes virus, in words” value in data set [4] is “active against the Type I and II herpes virus”.
